# According to PubChem BioAssay (NCI):
#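 How tested: cells in 96-well plates exposed to compound for 48 hours at five concentrations. At the TGI there is no net growth.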
# How the values were obtained:
# Assay in all cases: inhibition of tumour cell growth, NCI panel, 48 h
# 786-0 renal = system: 786-0 renal
# A498 renal = system: A498 renal
# A549 NSCLC = system: A549 NSCLC
# BT-549 breast = system: BT-549 breast
# CAKI-1 renal = system: CAKI-1 renal
# CCRF-CEM leukemia = system: CCRF-CEM leukemia
# COLO 205 colon = system: COLO 205 colon
# DU-145 prostate = system: DU-145 prostate
# EKVX NSCLC = system: EKVX NSCLC
# HCT-116 colon = system: HCT-116 colon
# HCT-15 colon = system: HCT-15 colon
# HL-60(TB) leukemia = system: HL-60(TB) leukemia
# HOP-62 NSCLC = system: HOP-62 NSCLC
# HOP-92 NSCLC = system: HOP-92 NSCLC
# HS 578T breast = system: HS 578T breast
# HT29 colon = system: HT29 colon
# IGROV1 ovarian = system: IGROV1 ovarian
# K-562 leukemia = system: K-562 leukemia
# KM12 colon = system: KM12 colon
# LOX IMVI melanoma = system: LOX IMVI melanoma
# M14 melanoma = system: M14 melanoma
# MALME-3M melanoma = system: MALME-3M melanoma
# MCF7 breast = system: MCF7 breast
# MDA-MB-231 breast = system: MDA-MB-231 breast
# MDA-MB-435 = system: MDA-MB-435
# MDA-N = system: MDA-N
# MOLT-4 leukemia = system: MOLT-4 leukemia
# NCI-H226 lung = system: NCI-H226 lung
# NCI-H23 lung = system: NCI-H23 lung
# NCI-H522 lung = system: NCI-H522 lung
# NCI/ADR-RES ovarian = system: NCI/ADR-RES ovarian
# OVCAR-3 ovarian = system: OVCAR-3 ovarian
# OVCAR-5 ovarian = system: OVCAR-5 ovarian
# OVCAR-8 ovarian = system: OVCAR-8 ovarian
# PC-3 prostate = system: PC-3 prostate
# RPMI-8226 leukemia = system: RPMI-8226 leukemia
# SF-268 CNS = system: SF-268 CNS
# SF-295 CNS = system: SF-295 CNS
# SF-539 CNS = system: SF-539 CNS
# SK-MEL-2 melanoma = system: SK-MEL-2 melanoma
# SK-MEL-28 melanoma = system: SK-MEL-28 melanoma
# SK-MEL-5 melanoma = system: SK-MEL-5 melanoma
# SK-OV-3 ovarian = system: SK-OV-3 ovarian
# SN12C renal = system: SN12C renal
# SNB-75 CNS = system: SNB-75 CNS
# SR leukemia = system: SR leukemia
# SW-620 colon = system: SW-620 colon
# T-47D breast = system: T-47D breast
# TK-10 renal = system: TK-10 renal
# U251 CNS = system: U251 CNS
# UACC-257 melanoma = system: UACC-257 melanoma
# UACC-62 melanoma = system: UACC-62 melanoma
# UO-31 renal = system: UO-31 renal
# ACHN renal = system: ACHN renal
# HCC-2998 colon = system: HCC-2998 colon
# NCI-H460 lung = system: NCI-H460 lung
# OVCAR-4 ovarian = system: OVCAR-4 ovarian
# RXF 393 renal = system: RXF 393 renal
# SNB-19 CNS = system: SNB-19 CNS
structure (smiles),measurement,setting,value
O=C1c2ccccc2-c2c1c1ccccc1c(=O)n2Cc1ccco1,TGI,786-0 renal,> 100 µM
same,TGI,A498 renal,> 100 µM
same,TGI,A549 NSCLC,> 100 µM
same,TGI,BT-549 breast,> 100 µM
same,TGI,CAKI-1 renal,> 100 µM
same,TGI,CCRF-CEM leukemia,> 100 µM
same,TGI,COLO 205 colon,> 100 µM
same,TGI,DU-145 prostate,> 100 µM
same,TGI,EKVX NSCLC,> 100 µM
same,TGI,HCT-116 colon,> 100 µM
same,TGI,HCT-15 colon,> 100 µM
same,TGI,HL-60(TB) leukemia,> 100 µM
same,TGI,HOP-62 NSCLC,> 100 µM
same,TGI,HOP-92 NSCLC,> 100 µM
same,TGI,HS 578T breast,> 100 µM
same,TGI,HT29 colon,> 100 µM
same,TGI,IGROV1 ovarian,> 100 µM
same,TGI,K-562 leukemia,> 100 µM
same,TGI,KM12 colon,> 100 µM
same,TGI,LOX IMVI melanoma,> 100 µM
same,TGI,M14 melanoma,> 100 µM
same,TGI,MALME-3M melanoma,> 100 µM
same,TGI,MCF7 breast,> 100 µM
same,TGI,MDA-MB-231 breast,> 100 µM
same,TGI,MDA-MB-435,> 100 µM
same,TGI,MDA-N,> 100 µM
same,TGI,MOLT-4 leukemia,> 100 µM
same,TGI,NCI-H226 lung,> 100 µM
same,TGI,NCI-H23 lung,> 100 µM
same,TGI,NCI-H522 lung,> 100 µM
same,TGI,NCI/ADR-RES ovarian,> 100 µM
same,TGI,OVCAR-3 ovarian,> 100 µM
same,TGI,OVCAR-5 ovarian,> 100 µM
same,TGI,OVCAR-8 ovarian,> 100 µM
same,TGI,PC-3 prostate,> 100 µM
same,TGI,RPMI-8226 leukemia,> 100 µM
same,TGI,SF-268 CNS,> 100 µM
same,TGI,SF-295 CNS,> 100 µM
same,TGI,SF-539 CNS,> 100 µM
same,TGI,SK-MEL-2 melanoma,> 100 µM
same,TGI,SK-MEL-28 melanoma,> 100 µM
same,TGI,SK-MEL-5 melanoma,> 100 µM
same,TGI,SK-OV-3 ovarian,> 100 µM
same,TGI,SN12C renal,> 100 µM
same,TGI,SNB-75 CNS,> 100 µM
same,TGI,SR leukemia,> 100 µM
same,TGI,SW-620 colon,> 100 µM
same,TGI,T-47D breast,> 100 µM
same,TGI,TK-10 renal,> 100 µM
same,TGI,U251 CNS,> 100 µM
same,TGI,UACC-257 melanoma,> 100 µM
same,TGI,UACC-62 melanoma,> 100 µM
same,TGI,UO-31 renal,> 100 µM
Cc1ccc2c(c1)SSSSS2,TGI,786-0 renal,37.2 µM
same,TGI,A498 renal,35.1 µM
same,TGI,A549 NSCLC,48.7 µM
same,TGI,ACHN renal,34.9 µM
same,TGI,BT-549 breast,39.1 µM
same,TGI,CAKI-1 renal,36 µM
same,TGI,CCRF-CEM leukemia,17 µM
same,TGI,COLO 205 colon,97.9 µM
same,TGI,DU-145 prostate,31.2 µM
same,TGI,EKVX NSCLC,65.1 µM
same,TGI,HCC-2998 colon,31.6 µM
same,TGI,HCT-116 colon,30.6 µM
same,TGI,HCT-15 colon,30 µM
same,TGI,HL-60(TB) leukemia,42.2 µM
same,TGI,HOP-62 NSCLC,38 µM
same,TGI,HOP-92 NSCLC,34.5 µM
same,TGI,HS 578T breast,69.6 µM
same,TGI,HT29 colon,70.6 µM
same,TGI,IGROV1 ovarian,40.8 µM
same,TGI,K-562 leukemia,> 100 µM
same,TGI,KM12 colon,34 µM
same,TGI,LOX IMVI melanoma,34.4 µM
same,TGI,M14 melanoma,58.6 µM
same,TGI,MALME-3M melanoma,44.6 µM
same,TGI,MCF7 breast,43 µM
same,TGI,MDA-MB-231 breast,59.1 µM
same,TGI,MDA-MB-435,38.8 µM
same,TGI,MDA-N,87.1 µM
same,TGI,MOLT-4 leukemia,> 100 µM
same,TGI,NCI-H23 lung,43 µM
same,TGI,NCI-H460 lung,32.5 µM
same,TGI,NCI-H522 lung,40.6 µM
same,TGI,NCI/ADR-RES ovarian,66.7 µM
same,TGI,OVCAR-3 ovarian,40.5 µM
same,TGI,OVCAR-4 ovarian,37.2 µM
same,TGI,OVCAR-5 ovarian,46.9 µM
same,TGI,OVCAR-8 ovarian,53.7 µM
same,TGI,PC-3 prostate,57.8 µM
same,TGI,RXF 393 renal,39 µM
same,TGI,SF-268 CNS,60.5 µM
same,TGI,SF-295 CNS,37 µM
same,TGI,SK-MEL-28 melanoma,65.4 µM
same,TGI,SK-MEL-5 melanoma,35.8 µM
same,TGI,SK-OV-3 ovarian,39.8 µM
same,TGI,SN12C renal,46.7 µM
same,TGI,SNB-19 CNS,48 µM
same,TGI,SNB-75 CNS,49.2 µM
same,TGI,SR leukemia,> 100 µM
same,TGI,SW-620 colon,37.1 µM
same,TGI,T-47D breast,29 µM
same,TGI,TK-10 renal,37.9 µM
same,TGI,U251 CNS,> 100 µM
same,TGI,UACC-257 melanoma,38.5 µM
same,TGI,UACC-62 melanoma,36.2 µM
same,TGI,UO-31 renal,33 µM
